Inconclusive results and toxic doses are left out.
System: BDF1 mice, B16 melanoma ip, median survival T/C
Test: NCI In Vivo Anticancer Drug Screen. Data for tumor model B16 Melanoma (intraperitoneal) in B6D2F1 (BDF1) mice
Conditions: endpoint: median survival time, higher = longer survival
Method in brief: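 Transplantable tumor model; survival or tumor size measured; reported as T/C, treated over vehicle control.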

[1] = dose: 100.0 mg/kg/injection, schedule: Q01DX009 (ip), vehicle: Klucel (hydroxypropylcellulose) (HPC)
[2] = dose: 100.0 mg/kg/injection, schedule: Q04DX003 (ip), vehicle: Klucel (hydroxypropylcellulose) (HPC)
[3] = dose: 200.0 mg/kg/injection, schedule: Q01DX009 (ip), vehicle: Klucel (hydroxypropylcellulose) (HPC)
[4] = dose: 200.0 mg/kg/injection, schedule: Q04DX003 (ip), vehicle: Klucel (hydroxypropylcellulose) (HPC)
[5] = dose: 400.0 mg/kg/injection, schedule: Q04DX003 (ip), vehicle: Klucel (hydroxypropylcellulose) (HPC)
[6] = dose: 25.0 mg/kg/injection, schedule: Q01DX009 (ip), vehicle: saline with Tween-80
[7] = dose: 50.0 mg/kg/injection, schedule: Q01DX009 (ip), vehicle: saline with Tween-80
[8] = dose: 100.0 mg/kg/injection, schedule: Q01DX009 (ip), vehicle: saline with Tween-80

COc1ccc(NC(=O)Oc2ccc(-c3ccccc3)cc2Br)cc1
T/C [1]: 93 % of control | T/C [2]: 103 % of control | T/C [3]: 93 % of control | T/C [4]: 112 % of control | T/C (dose: 400.0 mg/kg/injection, schedule: Q01DX009 (ip), vehicle: Klucel (hydroxypropylcellulose) (HPC)): 96 % of control | T/C [5]: 109 % of control

CC[C@@]1(O)C(=O)OCc2c1cc1n(c2=O)Cc2cc3c(OC)cccc3nc2-1
T/C (dose: 0.39 mg/kg/injection, schedule: Q01DX009 (ip), vehicle: other): 150 % of control | T/C (dose: 0.79 mg/kg/injection, schedule: Q01DX009 (ip), vehicle: other): 161 % of control | T/C (dose: 2.0 mg/kg/injection, schedule: Q01DX009 (ip), vehicle: Klucel (hydroxypropylcellulose) (HPC)): 175 % of control | T/C (dose: 4.0 mg/kg/injection, schedule: Q01DX009 (ip), vehicle: carboxymethylcellulose (CMC)): 172 % of control

CCCCNC(=O)Oc1ccc(C(=O)OCC)cc1
T/C [6]: 96 % of control | T/C [7]: 98 % of control | T/C [8]: 95 % of control

ClC(c1ccccc1)c1ccc(Br)cc1 (configuration not stated)
T/C (dose: 50.0 mg/kg/injection, schedule: Q01DX009 (ip), vehicle: Klucel (hydroxypropylcellulose) (HPC)): 105 % of control | T/C [1]: 97 % of control | T/C [3]: 88 % of control

CC(=O)Nc1ccc(CCCCc2cccc(C(=N)N)c2)cc1
T/C (dose: 2.3 mg/kg/injection, schedule: Q04DX003 (ip), vehicle: saline with Tween-80): 86 % of control | T/C (dose: 4.6 mg/kg/injection, schedule: Q04DX003 (ip), vehicle: saline with Tween-80): 86 % of control | T/C (dose: 9.3 mg/kg/injection, schedule: Q04DX003 (ip), vehicle: saline with Tween-80): 95 % of control | T/C (dose: 12.5 mg/kg/injection, schedule: Q01DX009 (ip), vehicle: saline with Tween-80): 97 % of control | T/C (dose: 18.75 mg/kg/injection, schedule: Q04DX003 (ip), vehicle: saline with Tween-80): 116 % of control | T/C [6]: 97 % of control

O=NN(CCF)C(=O)NC1CCCCC1
T/C (dose: 7.5 mg/kg/injection, schedule: Q01DX001 (ip), vehicle: saline + alcohol): 115 % of control | T/C (dose: 15.0 mg/kg/injection, schedule: Q01DX001 (ip), vehicle: saline + alcohol): 106 % of control | T/C (dose: 30.0 mg/kg/injection, schedule: Q01DX001 (ip), vehicle: saline + alcohol): 119 % of control | T/C (dose: 60.0 mg/kg/injection, schedule: Q01DX001 (ip), vehicle: saline + alcohol): 171 % of control | T/C (dose: 120.0 mg/kg/injection, schedule: Q01DX001 (ip), vehicle: saline + alcohol): 166 % of control

O=C(Nc1ccc2c(c1)OCO2)O/N=C1\C(=O)Nc2ccccc21
T/C (dose: 16.5 mg/kg/injection, schedule: Q04DX003 (ip), vehicle: saline with Tween-80): 100 % of control | T/C [6]: 109 % of control | T/C (dose: 25.0 mg/kg/injection, schedule: Q04DX003 (ip), vehicle: saline with Tween-80): 100 % of control | T/C (dose: 25.0 mg/kg/injection, schedule: Q04DX003 (ip), vehicle: saline): 153 % of control | T/C (dose: 37.5 mg/kg/injection, schedule: Q04DX003 (ip), vehicle: saline with Tween-80): 95 % of control | T/C [7]: 104 % of control | T/C [8]: 100 % of control

COc1ccc2nc3cc(Cl)ccc3c(Nc3ccc(O)c(CN(CCCl)CCCl)c3)c2c1
T/C (dose: 0.25 mg/kg/injection, schedule: Q01DX009 (ip), vehicle: saline): 104 % of control | T/C (dose: 0.5 mg/kg/injection, schedule: Q01DX009 (ip), vehicle: saline): 121 % of control | T/C (dose: 1.0 mg/kg/injection, schedule: Q01DX009 (ip), vehicle: saline): 120 % of control

CC(=O)NC(=O)Nc1ccccc1
T/C [2]: 97 % of control | T/C [4]: 95 % of control | T/C [5]: 100 % of control

CCN1C=C/C(=C/c2cc3scc(-c4ccccc4)[n+]3c3ccccc23)c2ccccc21
T/C (dose: 0.08 mg/kg/injection, schedule: Q01DX009 (ip), vehicle: saline): 94 % of control | T/C (dose: 0.15 mg/kg/injection, schedule: Q01DX009 (ip), vehicle: saline): 94 % of control | T/C (dose: 0.3 mg/kg/injection, schedule: Q01DX009 (ip), vehicle: saline): 90 % of control | T/C (dose: 75.0 micrograms/kg/injection, schedule: Q01DX009 (ip), vehicle: Klucel (hydroxypropylcellulose) (HPC)): 103 % of control | T/C (dose: 150.0 micrograms/kg/injection, schedule: Q01DX009 (ip), vehicle: Klucel (hydroxypropylcellulose) (HPC)): 107 % of control | T/C (dose: 300.0 micrograms/kg/injection, schedule: Q01DX009 (ip), vehicle: Klucel (hydroxypropylcellulose) (HPC)): 98 % of control | T/C (dose: 600.0 micrograms/kg/injection, schedule: Q01DX009 (ip), vehicle: Klucel (hydroxypropylcellulose) (HPC)): 95 % of control

— PubChem BioAssay AID192 (DTP/NCI, 2004)
